Data as given in ChEMBL document CHEMBL3991601, “The target landscape of clinical kinase drugs” (Science, 2017).
Calls of active or inactive are those of the source. Cut-off read from the data, not from the text of the source, for most assays here: actives have a measured Kd and inactives only a lower limit.

Assays:
TGF-beta receptor type-2 = TGF-beta receptor type-2 (Homo sapiens, UniProt P37173)
[1] = target: T1, DNA replication licensing factor MCM4 (Homo sapiens, UniProt P33991)
T1 sequence (P33991 whole entry): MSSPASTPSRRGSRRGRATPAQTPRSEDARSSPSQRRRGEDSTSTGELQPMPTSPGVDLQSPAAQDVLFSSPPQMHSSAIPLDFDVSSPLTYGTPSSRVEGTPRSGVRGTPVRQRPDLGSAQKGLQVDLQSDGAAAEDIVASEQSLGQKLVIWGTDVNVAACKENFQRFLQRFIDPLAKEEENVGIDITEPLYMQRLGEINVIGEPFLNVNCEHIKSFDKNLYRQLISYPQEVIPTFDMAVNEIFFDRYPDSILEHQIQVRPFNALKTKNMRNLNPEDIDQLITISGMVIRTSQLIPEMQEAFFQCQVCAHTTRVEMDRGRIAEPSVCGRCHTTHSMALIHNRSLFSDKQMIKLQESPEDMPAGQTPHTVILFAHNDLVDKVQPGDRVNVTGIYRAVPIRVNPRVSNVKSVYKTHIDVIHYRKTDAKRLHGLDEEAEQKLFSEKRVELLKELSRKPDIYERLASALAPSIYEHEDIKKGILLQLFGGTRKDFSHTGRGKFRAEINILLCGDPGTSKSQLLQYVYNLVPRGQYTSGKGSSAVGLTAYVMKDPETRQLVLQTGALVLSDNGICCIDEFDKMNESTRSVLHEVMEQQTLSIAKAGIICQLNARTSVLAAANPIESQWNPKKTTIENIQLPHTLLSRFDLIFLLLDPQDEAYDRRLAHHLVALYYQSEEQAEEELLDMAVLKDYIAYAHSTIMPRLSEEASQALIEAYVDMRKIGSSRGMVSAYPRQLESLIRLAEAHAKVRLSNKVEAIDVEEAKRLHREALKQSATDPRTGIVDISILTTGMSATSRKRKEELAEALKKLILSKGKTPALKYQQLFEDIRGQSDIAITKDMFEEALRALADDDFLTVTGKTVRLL

[2] = target: T2, Serine/threonine-protein kinase TAO2 (Homo sapiens, UniProt Q9UL54)
T2 sequence (Q9UL54 whole entry): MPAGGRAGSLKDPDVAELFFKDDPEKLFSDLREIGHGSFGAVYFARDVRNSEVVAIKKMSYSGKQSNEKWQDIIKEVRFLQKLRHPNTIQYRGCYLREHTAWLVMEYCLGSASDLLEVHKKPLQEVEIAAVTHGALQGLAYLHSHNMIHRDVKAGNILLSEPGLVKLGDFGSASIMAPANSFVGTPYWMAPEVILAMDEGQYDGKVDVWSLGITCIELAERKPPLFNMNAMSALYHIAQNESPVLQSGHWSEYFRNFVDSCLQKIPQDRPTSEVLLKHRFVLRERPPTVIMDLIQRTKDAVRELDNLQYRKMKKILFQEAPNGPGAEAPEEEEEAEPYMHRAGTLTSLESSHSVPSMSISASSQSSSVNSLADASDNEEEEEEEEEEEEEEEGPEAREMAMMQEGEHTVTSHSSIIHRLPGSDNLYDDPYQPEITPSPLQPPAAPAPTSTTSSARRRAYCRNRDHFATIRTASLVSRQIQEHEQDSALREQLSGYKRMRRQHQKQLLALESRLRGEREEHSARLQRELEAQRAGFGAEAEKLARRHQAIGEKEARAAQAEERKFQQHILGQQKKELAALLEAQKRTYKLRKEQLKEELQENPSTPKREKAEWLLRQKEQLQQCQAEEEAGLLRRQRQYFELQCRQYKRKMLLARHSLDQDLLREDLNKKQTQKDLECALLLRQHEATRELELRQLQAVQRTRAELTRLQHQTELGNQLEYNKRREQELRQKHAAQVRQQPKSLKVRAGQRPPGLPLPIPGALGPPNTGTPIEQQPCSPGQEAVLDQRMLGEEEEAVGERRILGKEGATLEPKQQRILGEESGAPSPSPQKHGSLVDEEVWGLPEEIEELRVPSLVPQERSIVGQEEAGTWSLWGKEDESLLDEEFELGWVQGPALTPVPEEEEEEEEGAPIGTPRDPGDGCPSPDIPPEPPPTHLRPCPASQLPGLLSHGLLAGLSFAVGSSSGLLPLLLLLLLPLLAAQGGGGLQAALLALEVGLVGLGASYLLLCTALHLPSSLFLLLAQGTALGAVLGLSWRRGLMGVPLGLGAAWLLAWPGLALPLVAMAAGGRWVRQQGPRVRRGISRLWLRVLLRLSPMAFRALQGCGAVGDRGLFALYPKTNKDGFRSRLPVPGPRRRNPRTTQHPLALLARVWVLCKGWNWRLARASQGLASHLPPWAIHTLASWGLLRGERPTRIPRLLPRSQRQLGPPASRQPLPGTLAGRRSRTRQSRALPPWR

[3] = target: Tyrosine-protein kinase ABL1 (Homo sapiens, UniProt P00519)
[4] = target: Dual specificity mitogen-activated protein kinase kinase 1 (Homo sapiens, UniProt Q02750)
[5] = target: Rho-associated protein kinase 1 (Homo sapiens, UniProt Q13464)
[6] = target: T3, Serine/threonine-protein kinase ICK (Homo sapiens, UniProt Q9UPZ9)
T3 sequence (Q9UPZ9 whole entry): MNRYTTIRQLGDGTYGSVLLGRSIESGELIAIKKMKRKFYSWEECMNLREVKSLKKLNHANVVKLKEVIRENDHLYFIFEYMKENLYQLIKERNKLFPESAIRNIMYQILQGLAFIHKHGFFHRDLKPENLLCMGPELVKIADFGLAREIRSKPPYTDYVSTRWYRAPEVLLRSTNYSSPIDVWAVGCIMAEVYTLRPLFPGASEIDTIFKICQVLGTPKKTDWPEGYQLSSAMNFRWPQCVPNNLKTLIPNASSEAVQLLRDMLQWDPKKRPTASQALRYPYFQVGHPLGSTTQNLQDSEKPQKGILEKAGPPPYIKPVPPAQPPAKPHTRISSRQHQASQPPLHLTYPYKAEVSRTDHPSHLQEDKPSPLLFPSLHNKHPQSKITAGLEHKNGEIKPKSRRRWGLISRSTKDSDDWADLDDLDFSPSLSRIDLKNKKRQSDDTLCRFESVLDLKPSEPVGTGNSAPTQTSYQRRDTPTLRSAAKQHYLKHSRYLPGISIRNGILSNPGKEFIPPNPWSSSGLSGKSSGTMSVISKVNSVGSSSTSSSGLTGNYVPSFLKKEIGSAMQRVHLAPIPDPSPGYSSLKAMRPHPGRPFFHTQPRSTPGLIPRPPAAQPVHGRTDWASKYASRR

[7] = target: RAC-gamma serine/threonine-protein kinase (Homo sapiens, UniProt Q9Y243)
Note: in the data inactive means no Kd found up to 30 µM.

Chain of Dual specificity mitogen-activated protein kinase kinase 1 (Q02750 whole entry): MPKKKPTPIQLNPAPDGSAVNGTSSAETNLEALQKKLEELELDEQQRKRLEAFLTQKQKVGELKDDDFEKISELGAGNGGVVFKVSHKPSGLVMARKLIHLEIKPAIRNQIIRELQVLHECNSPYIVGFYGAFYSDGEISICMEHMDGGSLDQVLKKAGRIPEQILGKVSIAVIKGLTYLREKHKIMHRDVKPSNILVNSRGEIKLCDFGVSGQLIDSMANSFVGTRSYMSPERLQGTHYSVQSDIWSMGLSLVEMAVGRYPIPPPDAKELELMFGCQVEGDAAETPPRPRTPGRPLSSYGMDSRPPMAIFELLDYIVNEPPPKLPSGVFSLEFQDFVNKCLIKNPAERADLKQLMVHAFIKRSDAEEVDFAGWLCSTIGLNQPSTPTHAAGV
Chain of TGF-beta receptor type-2 (P37173 whole entry): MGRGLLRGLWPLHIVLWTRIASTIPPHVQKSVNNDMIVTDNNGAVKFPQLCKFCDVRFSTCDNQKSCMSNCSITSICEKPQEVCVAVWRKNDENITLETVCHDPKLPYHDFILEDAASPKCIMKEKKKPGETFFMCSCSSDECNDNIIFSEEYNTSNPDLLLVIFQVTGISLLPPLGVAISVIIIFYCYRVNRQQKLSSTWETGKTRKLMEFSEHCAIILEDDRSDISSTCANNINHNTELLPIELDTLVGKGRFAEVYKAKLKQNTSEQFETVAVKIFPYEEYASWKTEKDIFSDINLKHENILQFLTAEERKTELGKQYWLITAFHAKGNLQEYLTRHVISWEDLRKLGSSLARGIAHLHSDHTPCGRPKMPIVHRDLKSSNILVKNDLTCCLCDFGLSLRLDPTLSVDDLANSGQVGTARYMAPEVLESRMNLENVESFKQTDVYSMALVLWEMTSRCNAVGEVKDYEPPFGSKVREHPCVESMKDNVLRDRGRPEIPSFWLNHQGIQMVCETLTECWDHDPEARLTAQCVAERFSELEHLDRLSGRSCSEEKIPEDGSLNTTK
Chain of RAC-gamma serine/threonine-protein kinase (Q9Y243 whole entry): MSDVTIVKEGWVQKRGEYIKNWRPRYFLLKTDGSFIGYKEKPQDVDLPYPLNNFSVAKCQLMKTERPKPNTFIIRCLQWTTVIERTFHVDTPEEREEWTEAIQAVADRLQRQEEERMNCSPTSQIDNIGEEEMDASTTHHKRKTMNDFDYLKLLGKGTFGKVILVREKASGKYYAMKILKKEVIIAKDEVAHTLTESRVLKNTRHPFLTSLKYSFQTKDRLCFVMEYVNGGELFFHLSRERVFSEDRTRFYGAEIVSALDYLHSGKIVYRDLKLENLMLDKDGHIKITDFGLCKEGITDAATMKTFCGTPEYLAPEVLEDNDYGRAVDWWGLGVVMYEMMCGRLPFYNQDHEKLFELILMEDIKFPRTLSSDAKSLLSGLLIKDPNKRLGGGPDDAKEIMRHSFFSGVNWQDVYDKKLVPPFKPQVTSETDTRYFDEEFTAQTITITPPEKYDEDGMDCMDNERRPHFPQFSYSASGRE
Chain of Rho-associated protein kinase 1 (Q13464 whole entry): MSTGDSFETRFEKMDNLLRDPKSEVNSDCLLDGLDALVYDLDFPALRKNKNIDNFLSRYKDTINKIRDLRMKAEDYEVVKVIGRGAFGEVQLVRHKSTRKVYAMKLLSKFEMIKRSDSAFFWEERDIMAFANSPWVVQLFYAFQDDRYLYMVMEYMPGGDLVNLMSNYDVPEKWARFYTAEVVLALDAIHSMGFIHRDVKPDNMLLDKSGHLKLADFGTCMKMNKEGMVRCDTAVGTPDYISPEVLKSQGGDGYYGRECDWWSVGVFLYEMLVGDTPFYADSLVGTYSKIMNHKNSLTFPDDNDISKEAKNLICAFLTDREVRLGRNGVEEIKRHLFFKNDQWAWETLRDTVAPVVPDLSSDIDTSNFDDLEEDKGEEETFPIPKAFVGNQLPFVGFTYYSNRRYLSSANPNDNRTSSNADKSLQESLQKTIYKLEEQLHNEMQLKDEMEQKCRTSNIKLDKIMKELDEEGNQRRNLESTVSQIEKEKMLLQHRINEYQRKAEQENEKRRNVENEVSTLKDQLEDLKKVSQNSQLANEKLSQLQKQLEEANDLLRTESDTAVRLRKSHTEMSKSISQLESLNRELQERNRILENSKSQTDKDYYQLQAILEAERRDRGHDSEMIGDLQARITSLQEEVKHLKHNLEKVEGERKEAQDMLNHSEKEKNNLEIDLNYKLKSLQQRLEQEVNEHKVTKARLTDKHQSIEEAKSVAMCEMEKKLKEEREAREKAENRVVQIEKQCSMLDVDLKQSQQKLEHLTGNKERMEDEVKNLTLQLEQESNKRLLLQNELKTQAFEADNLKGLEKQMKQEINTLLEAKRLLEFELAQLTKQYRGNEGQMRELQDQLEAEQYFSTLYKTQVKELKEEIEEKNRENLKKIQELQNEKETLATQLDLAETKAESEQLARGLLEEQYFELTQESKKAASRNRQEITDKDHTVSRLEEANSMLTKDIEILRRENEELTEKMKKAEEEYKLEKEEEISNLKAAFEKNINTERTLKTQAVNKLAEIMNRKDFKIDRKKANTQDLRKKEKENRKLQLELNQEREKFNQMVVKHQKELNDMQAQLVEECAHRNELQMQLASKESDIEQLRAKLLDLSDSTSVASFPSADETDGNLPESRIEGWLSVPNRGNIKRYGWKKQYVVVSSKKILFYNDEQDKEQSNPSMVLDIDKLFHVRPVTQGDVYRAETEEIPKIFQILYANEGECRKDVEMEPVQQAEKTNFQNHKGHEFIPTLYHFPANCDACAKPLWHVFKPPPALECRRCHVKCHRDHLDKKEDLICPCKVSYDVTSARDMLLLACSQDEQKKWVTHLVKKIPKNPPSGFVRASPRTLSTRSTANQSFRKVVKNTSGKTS
Chain of Tyrosine-protein kinase ABL1 (P00519 whole entry): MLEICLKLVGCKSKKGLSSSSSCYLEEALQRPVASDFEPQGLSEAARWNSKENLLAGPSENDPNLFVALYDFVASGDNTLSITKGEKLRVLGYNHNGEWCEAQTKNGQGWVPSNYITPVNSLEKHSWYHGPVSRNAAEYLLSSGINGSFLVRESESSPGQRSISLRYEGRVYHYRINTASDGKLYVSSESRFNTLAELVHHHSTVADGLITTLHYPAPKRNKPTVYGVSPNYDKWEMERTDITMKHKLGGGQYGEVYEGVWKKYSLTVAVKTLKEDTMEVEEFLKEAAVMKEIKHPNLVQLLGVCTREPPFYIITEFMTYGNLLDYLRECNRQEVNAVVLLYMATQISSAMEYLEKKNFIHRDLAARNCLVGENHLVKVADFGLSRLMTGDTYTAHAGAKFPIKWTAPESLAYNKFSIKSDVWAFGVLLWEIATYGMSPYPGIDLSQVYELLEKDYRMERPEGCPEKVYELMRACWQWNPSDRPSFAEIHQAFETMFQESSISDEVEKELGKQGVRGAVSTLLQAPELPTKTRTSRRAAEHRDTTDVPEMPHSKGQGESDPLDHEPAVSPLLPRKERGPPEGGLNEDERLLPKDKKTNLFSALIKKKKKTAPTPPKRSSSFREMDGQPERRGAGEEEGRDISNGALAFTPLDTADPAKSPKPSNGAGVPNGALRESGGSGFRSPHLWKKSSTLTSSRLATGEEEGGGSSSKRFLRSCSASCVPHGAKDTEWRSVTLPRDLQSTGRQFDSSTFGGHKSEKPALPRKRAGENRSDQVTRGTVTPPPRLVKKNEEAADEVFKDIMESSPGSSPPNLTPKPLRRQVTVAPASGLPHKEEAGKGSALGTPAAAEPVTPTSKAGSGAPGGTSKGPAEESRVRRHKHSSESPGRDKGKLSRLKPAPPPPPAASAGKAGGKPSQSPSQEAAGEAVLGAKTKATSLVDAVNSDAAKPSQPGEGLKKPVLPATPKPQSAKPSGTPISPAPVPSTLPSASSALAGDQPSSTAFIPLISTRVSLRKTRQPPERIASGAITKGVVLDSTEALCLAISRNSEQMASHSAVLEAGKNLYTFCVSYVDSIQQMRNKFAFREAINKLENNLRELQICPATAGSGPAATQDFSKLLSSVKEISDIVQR

Structure (SMILES)	Kd (TGF-beta receptor type-2)	Kd [1]	Kd [2]	Kd [3]	Kd [4]	Kd [5]	Kd [6]	Kd [7]
Cn1ncc(Cl)c1-c1cc(C(=O)N[C@H](CN)Cc2cccc(F)c2)sc1Cl [AFURESERTIB]	> 30 µM (inactive)	> 30 µM (inactive)	> 30 µM (inactive)	> 30 µM (inactive)	> 30 µM (inactive)	2.14 µM (active)		
CNS(=O)(=O)Nc1nccc(Cc2c(C)c3ccc(Oc4ncccn4)cc3oc2=O)c1F [AVUTOMETINIB]	> 30 µM (inactive)	> 30 µM (inactive)	> 30 µM (inactive)	> 30 µM (inactive)		> 30 µM (inactive)	> 30 µM (inactive)	> 30 µM (inactive)
Cc1cn(-c2cc(NC(=O)c3ccc(C)c(Nc4nccc(-c5cccnc5)n4)c3)cc(C(F)(F)F)c2)cn1 [NILOTINIB]		> 30 µM (inactive)						
CC(=O)Nc1cccc(-n2c(=O)n(C3CC3)c(=O)c3c(Nc4ccc(I)cc4F)n(C)c(=O)c(C)c32)c1 [TRAMETINIB]	> 30 µM (inactive)	> 30 µM (inactive)	> 30 µM (inactive)	> 30 µM (inactive)		> 30 µM (inactive)	> 30 µM (inactive)	> 30 µM (inactive)
CO[C@H]1C[C@@H]2CC[C@@H](C)[C@@](O)(O2)C(=O)C(=O)N2CCCC[C@H]2C(=O)O[C@H]([C@H](C)C[C@@H]2CC[C@@H](OCCO)[C@H](OC)C2)CC(=O)[C@H](C)/C=C(\C)[C@@H](O)[C@@H](OC)C(=O)[C@H](C)C[C@H](C)/C=C/C=C/C=C/1C [EVEROLIMUS]	> 30 µM (inactive)	> 30 µM (inactive)	> 30 µM (inactive)	> 30 µM (inactive)	> 30 µM (inactive)	> 30 µM (inactive)		> 30 µM (inactive)
OCCn1cc(-c2cnc3nnn(Cc4ccc5ncccc5c4)c3n2)cn1 [PF-04217903]	> 30 µM (inactive)	> 30 µM (inactive)	> 30 µM (inactive)				> 30 µM (inactive)	> 30 µM (inactive)
CCc1cnn2c(NCc3ccc[n+]([O-])c3)cc(N3CCCC[C@H]3CCO)nc12 [DINACICLIB]	> 30 µM (inactive)	> 30 µM (inactive)	2.23 µM (active)				0.271 µM (active)	> 30 µM (inactive)
CC(C)Nc1cc(-c2c[nH]c(C(=O)N[C@H](CO)c3cccc(Cl)c3)c2)c(Cl)cn1 [ULIXERTINIB]	> 30 µM (inactive)	> 30 µM (inactive)	> 30 µM (inactive)	> 30 µM (inactive)			> 30 µM (inactive)	> 30 µM (inactive)
O=C(Nc1cccc(Cl)c1)Nc1ncc(CCNc2ncnc3ccsc23)s1 [SNS-314]	> 30 µM (inactive)	> 30 µM (inactive)	> 30 µM (inactive)				> 30 µM (inactive)	
CN1CCN(c2ccc3nc(-c4c(N)c5c(F)cccc5[nH]c4=O)[nH]c3c2)CC1 [DOVITINIB]		> 30 µM (inactive)						
COc1cc2nccc(Oc3ccc(NC(=O)NC4CC4)c(Cl)c3)c2cc1C(N)=O [LENVATINIB]	> 30 µM (inactive)	> 30 µM (inactive)	> 30 µM (inactive)			> 30 µM (inactive)	> 30 µM (inactive)	> 30 µM (inactive)
Nc1nc(N)c2nc(-c3cccc(O)c3)c(-c3cccc(O)c3)nc2n1 [TG100-115]		> 30 µM (inactive)		> 30 µM (inactive)				
COc1cc2nccc(Oc3ccc(NC(=O)Nc4cc(C)on4)c(Cl)c3)c2cc1OC [TIVOZANIB]	> 30 µM (inactive)	> 30 µM (inactive)	> 30 µM (inactive)		> 30 µM (inactive)	> 30 µM (inactive)	> 30 µM (inactive)	> 30 µM (inactive)
C[C@@H](c1ccc2nccn2c1)n1nnc2ncc(-c3cnn(C)c3)nc21 [SAVOLITINIB]	> 30 µM (inactive)	> 30 µM (inactive)	> 30 µM (inactive)	> 30 µM (inactive)	> 30 µM (inactive)	> 30 µM (inactive)	> 30 µM (inactive)	
COC(=O)[C@@]1(O)C[C@H]2O[C@]1(C)n1c3ccccc3c3c4c(c5c6ccccc6n2c5c31)C(=O)NC4 [K-252A]	> 30 µM (inactive)	> 30 µM (inactive)	> 30 µM (inactive)	> 30 µM (inactive)		> 30 µM (inactive)	> 30 µM (inactive)	> 30 µM (inactive)

Second part, the compound after the results:

Kd (TGF-beta receptor type-2)	Kd [1]	Kd [2]	Kd [3]	Kd [4]	Kd [5]	Kd [6]	Kd [7]	Structure (SMILES)
> 30 µM (inactive)	> 30 µM (inactive)	> 30 µM (inactive)	> 30 µM (inactive)	> 30 µM (inactive)	> 30 µM (inactive)	> 30 µM (inactive)		C[C@@H](Nc1cc(F)cc(F)c1)c1cc(C(=O)N(C)C)cc2c(=O)cc(N3CCOCC3)oc12 [AZD-8186]
0.3 µM (active)	> 30 µM (inactive)			> 30 µM (inactive)				Cc1nc(N)sc1-c1ccnc(Nc2ccc(N3CCOCC3)cc2)n1 [CYC-116]
2.35 µM (active)	> 30 µM (inactive)			> 30 µM (inactive)		> 30 µM (inactive)		Cc1cc(Nc2cc(N3CCN(C)CC3)nc(/C=C/c3ccccc3)n2)n[nH]1 [ENMD-2076]
> 30 µM (inactive)	> 30 µM (inactive)	> 30 µM (inactive)	> 30 µM (inactive)	> 30 µM (inactive)		> 30 µM (inactive)	> 30 µM (inactive)	O=C(Nc1ccc(-c2ccnc(Nc3ccc(N4CCOCC4)cc3)n2)cc1)C1CCCN1 (configuration not stated) [XL-019]
> 30 µM (inactive)	> 30 µM (inactive)	> 30 µM (inactive)	> 30 µM (inactive)	> 30 µM (inactive)		> 30 µM (inactive)	> 30 µM (inactive)	COc1cc(CCc2cc(NC(=O)c3ccc(N4C[C@@H](C)N[C@@H](C)C4)cc3)n[nH]2)cc(OC)c1 [AZD-4547]
	> 30 µM (inactive)							CCn1c(-c2nonc2N)nc2c(C#CC(C)(C)O)ncc(OC[C@H]3CCCNC3)c21 [GSK-690693]
